Source: US20260125400A1, “TYK2 DEGRADERS AND USES THEREOF” (Kymera Therapeutics, Inc., priority 2023, published 2026)
Like-named read-outs stand apart in the source and are kept apart here.

Biological target: T1, TYK2 (Homo sapiens, UniProt P29597)
T1 construct: Degradation of TYK2 in cells was quantitatively measured using Meso Scale Discovery (MSD) technology; endogenous in cells; host or cells: OCI-LY10
Assay: TYK2 MSD degradation in OCI-LY10 cells
Format: cell-based
Conditions: 4 to 24 hours incubation; for DC50: read-out: TYK2 MSD OCI-LY10 Rel-DC50
How it was run: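 Cellular TYK2 levels were measured by Meso Scale Discovery sandwich detection in RIPA lysates of OCI-LY10 cells exposed 4 to 24 hours at 37° C to nine 1:3 compound doses starting at 1 to 10 μM final; dose-response fitted by four-parameter regression.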

[1] = TYK2 degradation in OCI-LY10 cells

T1 sequence (P29597 whole entry): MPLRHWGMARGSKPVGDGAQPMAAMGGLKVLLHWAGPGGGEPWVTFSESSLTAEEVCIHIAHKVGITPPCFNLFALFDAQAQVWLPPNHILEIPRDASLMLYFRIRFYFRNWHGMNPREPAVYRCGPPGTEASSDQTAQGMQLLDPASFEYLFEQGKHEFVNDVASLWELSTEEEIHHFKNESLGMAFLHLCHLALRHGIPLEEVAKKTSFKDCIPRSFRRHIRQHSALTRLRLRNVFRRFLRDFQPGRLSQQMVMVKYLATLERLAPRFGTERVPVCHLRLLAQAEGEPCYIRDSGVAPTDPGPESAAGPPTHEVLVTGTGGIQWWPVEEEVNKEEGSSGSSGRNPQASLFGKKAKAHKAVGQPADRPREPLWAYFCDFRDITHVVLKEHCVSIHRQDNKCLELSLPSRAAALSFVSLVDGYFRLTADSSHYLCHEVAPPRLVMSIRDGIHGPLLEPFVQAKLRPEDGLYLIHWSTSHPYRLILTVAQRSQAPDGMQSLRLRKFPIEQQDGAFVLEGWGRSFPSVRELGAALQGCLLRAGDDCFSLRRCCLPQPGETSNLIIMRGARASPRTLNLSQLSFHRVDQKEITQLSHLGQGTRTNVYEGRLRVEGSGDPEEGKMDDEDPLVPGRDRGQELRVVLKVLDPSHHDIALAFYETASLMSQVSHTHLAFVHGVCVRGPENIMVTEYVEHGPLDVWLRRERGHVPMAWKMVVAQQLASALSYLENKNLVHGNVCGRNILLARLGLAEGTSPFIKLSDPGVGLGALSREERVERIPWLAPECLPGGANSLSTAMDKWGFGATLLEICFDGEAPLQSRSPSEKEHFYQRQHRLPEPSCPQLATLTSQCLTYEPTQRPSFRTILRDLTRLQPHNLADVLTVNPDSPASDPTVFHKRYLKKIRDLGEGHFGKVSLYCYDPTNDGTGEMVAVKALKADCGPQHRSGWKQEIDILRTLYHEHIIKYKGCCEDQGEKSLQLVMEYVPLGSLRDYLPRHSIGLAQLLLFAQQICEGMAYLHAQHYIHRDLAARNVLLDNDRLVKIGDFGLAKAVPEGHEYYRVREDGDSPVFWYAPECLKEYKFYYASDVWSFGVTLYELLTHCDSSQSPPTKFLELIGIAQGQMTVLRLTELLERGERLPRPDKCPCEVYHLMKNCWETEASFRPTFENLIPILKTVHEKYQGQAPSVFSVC

Compound: CNc1cc(N2CCc3c(-c4ccc(CN5CC6(CCN(C(=O)c7cc(Cl)c(C)c(N8CCC(=O)NC8=O)c7)CC6(F)F)C5)cn4)cccc32)nn2c(C(=O)N[C@@H]3CC[C@H]3OC)cnc12 [I-754]
- TYK2 MSD OCI-LY10 Dmax % (OCI-LY10 cells): A (A (>90%))
- DC50 (OCI-LY10 cells): < 1 nM

Compound: CNc1cc(N2CCc3c(CN4CCC(N5CCC6(CCN(C(=O)c7cc(C)c(Cl)c(N8CCC(=O)NC8=O)c7)CC6)CC5)C(F)(F)C4)cc(Cl)cc32)nn2c(C(=O)N[C@@H]3CC[C@H]3OC)cnc12 (stereo partly drawn) [I-1116]
- TYK2 MSD OCI-LY10 Dmax % [1]: B (B (90 to >75%))
- DC50 [1]: < 10 nM

Compound: CNc1cc(N2CCc3c(-c4ncc(CN5CC6(CCN(C(=O)c7cc(Cl)c(C)c(N8CCC(=O)NC8=O)c7)CC6(F)F)C5)cc4F)cc(F)cc32)nn2c(C(=O)NC3CCC3OC)cnc12 (stereo not drawn) [I-1038]
- TYK2 MSD OCI-LY10 Dmax % [1]: A (A (>90%))
- DC50 [1]: < 1 nM

Compound: CNc1cc(N2CCc3c(-c4ccc(CC5(F)CC6(CCN(C(=O)c7cc(N8CCC(=O)NC8=O)c(C)cc7F)CC6)C5)cn4)cccc32)nn2c(C(=O)N[C@@H]3CC[C@H]3OC)cnc12 [I-1121]
- TYK2 MSD OCI-LY10 Dmax % [1]: A (A (>90%))
- DC50 [1]: < 1 nM

Compound: CNc1cc(N2CCc3c2cccc3C23CC(CN4CCN(C5CCN(C(=O)c6ccc(Cl)c(N7CCC(=O)NC7=O)c6)CC5)CC4)(C2)C3)nn2c(C(=O)N[C@@H]3C[C@@H]3F)cnc12 [I-823]
- TYK2 MSD OCI-LY10 Dmax % [1]: A (A (>90%))
- DC50 [1]: < 1 nM

Compound: CNc1cc(N2CCc3c(-c4ccc(CN5CC6(CCN(Cc7ccc(OC)c(N8CCC(=O)NC8=O)c7)CC6(F)F)C5)cn4)cccc32)nn2c(C(=O)N[C@@H]3C[C@@H]3F)cnc12 [I-367]
- TYK2 MSD OCI-LY10 Dmax % [1]: C (C (75 to 50%))
- DC50 [1]: < 10 nM

Compound: CNc1cc(N2CCc3c(-c4ccc(CN5CCC6(CCN(C(=O)c7ccc(Cl)c(N8CCC(=O)NC8=O)c7)CC6)C(F)(F)C5)cn4)cccc32)nn2c(C(=O)N[C@H]3CC[C@@H]3C(F)(F)F)cnc12 [I-1103]
- TYK2 MSD OCI-LY10 Dmax % [1]: D (D (<50%))
- DC50 [1]: 10 to 100 nM

Compound: CNc1cc(N2CCc3c(-c4ccc(CN5CCN(Cc6ccc(C7CCC(=O)NC7=O)c(Cl)c6)CC5)cn4)cccc32)nn2c(C(=O)N[C@@H]3C[C@@H]3F)cnc12 (stereo partly drawn) [I-374]
- TYK2 MSD OCI-LY10 Dmax % [1]: D (D (<50%))
- DC50 [1]: < 10 nM

Compound: CNc1cc(N2CCc3c(-c4ccc(CN5CCC6(CCN(C(=O)c7ccc(Cl)c(N8CCC(=O)NC8=O)c7)CC6)C(F)(F)C5)cn4)cccc32)nn2c(C(=O)N[C@@H]3CC[C@H]3C(F)(F)F)cnc12 [I-1108]
- TYK2 MSD OCI-LY10 Dmax % [1]: D (D (<50%))
- DC50 [1]: > 100 nM

Compound: CNc1cc(N2CCc3c(-c4ncc(CN5CC6(CCN(C(=O)c7cc(F)c(Cl)c(N8CCC(=O)NC8=O)c7)CC6(F)F)C5)cc4F)cccc32)nn2c(C(=O)N[C@@H]3C[C@@H]3F)cnc12 [I-994]
- TYK2 MSD OCI-LY10 Dmax % [1]: A (A (>90%))
- DC50 [1]: < 1 nM

Compound: CNc1cc(N2CCc3c(-c4ncc(C(=O)N5CC6(CCN(C(=O)c7cc(C)c(Cl)c(N8CCC(=O)NC8=O)c7)CC6(F)F)C5)cc4F)cccc32)nn2c(C(=O)N[C@@H]3CC[C@H]3OC)cnc12 [I-1139]
- TYK2 MSD OCI-LY10 Dmax % [1]: A (A (>90%))
- DC50 [1]: < 1 nM

Compound: CNc1cc(N2CCc3c(-c4ccc(CN5CC6(CCN(C(=O)c7cc(C)c(Cl)c(N8CCC(=O)NC8=O)c7)CC6(F)F)C5)cn4)cccc32)nn2c(C(=O)N[C@H]3CCC[C@@H]3OC)cnc12 [I-1117]
- TYK2 MSD OCI-LY10 Dmax % [1]: D (D (<50%))
- DC50 [1]: > 100 nM

Compound: CNc1cc(N2CCc3c(-c4ncc(CN5CC6(CCN(C(=O)c7cc(N8CCC(=O)NC8=O)c(C)c(Cl)c7F)CC6(F)F)C5)cc4F)cccc32)nn2c(C(=O)N[C@@H]3CC[C@H]3OC)cnc12 [I-1133]
- TYK2 MSD OCI-LY10 Dmax % [1]: A (A (>90%))
- DC50 [1]: < 1 nM

Compound: CNc1cc(N2CCc3c(CN4CCC(CN5CCC6(CC5)CCN(C(=O)c5ccc(Cl)c(N7CCC(=O)NC7=O)c5)CC6)C(F)(F)C4)cccc32)nn2c(C(=O)N[C@@H]3C[C@@H]3F)cnc12 (stereo partly drawn) [I-766]
- TYK2 MSD OCI-LY10 Dmax % (OCI-LY10 cells): A (A (>90%))
- DC50 (OCI-LY10 cells): < 1 nM

Compound: CNc1cc(N2CCc3c(-c4ccc(CN5CC6(CCN(Cc7ccc(Cl)c(N8CCC(=O)NC8=O)c7)CC6(F)F)C5)cn4)cccc32)nn2c(C(=O)NC3CCC3OC)cnc12 (stereo not drawn) [I-1011]
- TYK2 MSD OCI-LY10 Dmax % [1]: B (B (90 to >75%))
- DC50 [1]: < 10 nM

Compound: CNc1cc(-c2cn(C3CCN(CC4CCN(C(=O)c5ccc(Cl)c(N6CCC(=O)NC6=O)c5)CC4)CC3)c3ccccc23)nn2c(C(=O)N[C@@H]3C[C@@H]3F)cnc12 [I-789]
- TYK2 MSD OCI-LY10 Dmax % (OCI-LY10 cells): D (D (<50%))
- DC50 (OCI-LY10 cells): > 100 nM

Compound: CNc1cc(N2CCc3c(-c4ccc(CN5CCC6(CC5)CCN(C(=O)c5ccc(Cl)c(N7CCC(=O)NC7=O)c5)C6)cn4)cccc32)nn2c(C(=O)N[C@H]3C[C@H]3F)cnc12 [I-82]
- TYK2 MSD OCI-LY10 Dmax % [1]: B (B (90 to >75%))
- DC50 [1]: < 1 nM

Compound: CNc1cc(N2CC3(CCN(CCc4cccc5c4n(C)c(=O)n5C4CCC(=O)NC4=O)CC3)c3ccccc32)nn2c(C(=O)NC3CC3)cnc12 (stereo not drawn) [I-41]
- TYK2 MSD OCI-LY10 Dmax % [1]: D (D (<50%))
- DC50 [1]: > 100 nM

Compound: CNc1cc(N2CCc3c(-c4ncc(CN5CCC6(CCN(C(=O)c7cc(C)c(Cl)c(N8CCC(=O)NC8=O)c7)CC6)C(F)(F)C5)cc4F)cccc32)nn2c(C(=O)N[C@@H]3C[C@@H]3F)cnc12 [I-818]
- TYK2 MSD OCI-LY10 Dmax % [1]: B (B (90 to >75%))
- DC50 [1]: < 10 nM

Compound: CNc1cc(N2CCc3c2ccc(F)c3-c2ccc(CN3CCC4(CCN(C(=O)c5cc(C)c(Cl)c(N6CCC(=O)NC6=O)c5)CC4)C(F)(F)C3)cn2)nn2c(C(=O)N[C@@H]3C[C@@H]3F)cnc12 [I-742]
- TYK2 MSD OCI-LY10 Dmax % (OCI-LY10 cells): C (C (75 to 50%))
- DC50 (OCI-LY10 cells): 10 to 100 nM

Compound: CNc1cc(N2CCc3c(CN4CC[C@@H](N5CCC6(CCN(C(=O)c7cc(Cl)c(Cl)c(N8CCC(=O)NC8=O)c7)CC6)CC5)C(F)(F)C4)cccc32)nn2c(C(=O)N[C@@H]3CC[C@H]3OC)cnc12 [I-1145]
- TYK2 MSD OCI-LY10 Dmax % [1]: A (A (>90%))
- DC50 [1]: < 1 nM

Compound: CNc1cc(N2CCc3c(-c4ncc(CN5CC6(CCN(C(=O)c7cc(C)c(OC)c(N8CCC(=O)NC8=O)c7)CC6(F)F)C5)cc4F)cccc32)nn2c(C(=O)N[C@@H]3CC[C@H]3OC)cnc12 [I-1138]
- TYK2 MSD OCI-LY10 Dmax % [1]: B (B (90 to >75%))
- DC50 [1]: < 1 nM

Compound: CNc1cc(N2CCc3c(CN4CCC(N5CCC6(CCN(C(=O)c7ccc(Cl)c(N8CCC(=O)NC8=O)c7)CC6)CC5)C(F)(F)C4)cccc32)nn2c(C(=O)N[C@@H]3C[C@@H]3F)cnc12 (stereo partly drawn) [I-361]
- TYK2 MSD OCI-LY10 Dmax % [1]: B (B (90 to >75%))
- DC50 [1]: < 1 nM

Compound: CNc1cc(N2CCc3c(CN4CCC(N5CCC(C6CCN(C(=O)c7cc(C)c(Cl)c(N8CCC(=O)NC8=O)c7)CC6)CC5)C(F)(F)C4)cccc32)nn2c(C(=O)N[C@@H]3CC[C@H]3OC)cnc12 (stereo partly drawn) [I-1066]
- TYK2 MSD OCI-LY10 Dmax % [1]: A (A (>90%))
- DC50 [1]: < 1 nM

Compound: CNc1cc(N2CCc3c(-c4ncc(CN5CC6(CCN(C(=O)c7cc(N8CCC(=O)NC8=O)c(C)cc7F)CC6(F)F)C5)cc4F)cccc32)nn2c(C(=O)NC3CCC3OC)cnc12 (stereo not drawn) [I-1007]
- TYK2 MSD OCI-LY10 Dmax % [1]: A (A (>90%))
- DC50 [1]: < 1 nM

Compound: CNc1cc(N2CCc3c(-c4ncc(CN5CC6(CCN(C(=O)c7cc(C)c(Cl)c(N8CCC(=O)NC8=O)c7)CC6(F)F)C5)cc4F)cc(F)cc32)nn2c(C(=O)N[C@@H]3C[C@@H]3F)cnc12 [I-946]
- TYK2 MSD OCI-LY10 Dmax % [1]: A (A (>90%))
- DC50 [1]: < 1 nM

Compound: CNc1cc(N2CCc3c(-c4ccc(CN5CCC6(CCN(Cc7ccc(Cl)c(N8CCC(=O)NC8=O)c7)CC6)C(F)(F)C5)cn4)cccc32)nn2c(C(=O)NC3CC3)cnc12 [I-363]
- TYK2 MSD OCI-LY10 Dmax % [1]: D (D (<50%))
- DC50 [1]: > 100 nM
